Experimental data as given in patent US11318141B2, “Methods and compositions related to STK1-targeted small molecules as antibiotic resistance breakers” (Ohio State Innovation Foundation, priority 2017, dated 2022).
pIC50: −log10 of the molar value. Converted amounts (≈) assume the structure as drawn. “And” between values parts separate entries of the source, which are not always exact repeats. Equal entries are not always repeated. Where two headings read alike, the source gives them in different places.

Tests used:
[1] = target: S. aureus STKK1 (the soluble kinase domain of STK1, 280 aa) (Staphylococcus aureus, UniProt A0ABF7PGK0); test: In vitro kinase assay: inhibition of autophosphorylation of recombinant STKK1 (γ32P-ATP); type: biochemical; conditions: after 5 min pre-incubation
Procedure: For the present study, recombinant His-tag-STKK1 was created along with part of the adjacent juxta-membrane domain (1-280 aa) using the pET14b vector system and specific primers (Table-1 and Table-2) as described previously. The recombinant proteins were expressed in BL21 DE3 (pLysS) and purified using Ni^+2-NTA-affinity chromatography, dialyzed against 10 mM Tris/HCl, pH 7.5, and stored as 10% glycerol stock (500 μg/ml) at −20° C. as described previously. In vitro kinase assays were performed using 2 μg STKK1 in the presence of 1 μCi γ^32P-ATP (specific activity 3000 Ci/mMol, PerkinElmer) at 30° C. for 45 min in a final volume of 30 μl phosphorylation buffer (50 mM Tris/HCl, pH7.5, 1 mM dithiothreitol, 5 mM MgCl2, and/or 5 mM MnCl2). The inhibition of autophosphorylation of STKK1 was carried out using this assay in the presence and absence of (50 μM) individual members of the 32 prescreened small molecule compound library. Phosphorylated proteins were separated by SDS-PAGE and subsequently identified by using Coomassie stain and autoradiography. The individual phosphorylated protein bands were then excised and subjected to radioactive counting using beta-scintillation counter for quantitative analysis. Experiments were repeated at least three times for statistical analysis.

[2] = test system: S. pyogenes SP-STK; test: In vitro autophosphorylation / kinase activity of SP-STK; type: biochemical; conditions: at 116 μM
[3] = test system: S. aureus MW2; test: Broth dilution susceptibility / growth inhibition assay, Muller Hinton broth; type: cell-based, Staphylococcus aureus; conditions: Staphylococcus aureus
Procedure: (§1) Subsequently, the susceptibility of S. aureus MW2 strain to Ceftriaxone, Cefotaxime, Inh2, and Inh2-B1 was confirmed by the CLSI recommended serial dilution method using Muller Hinton broth. Minimum bactericidal activity (MBC) was measured using Muller-Hinton agar. Changes in the MBC of Ceftriaxone/Cefotaxime in the presence of serially diluted Inh2-B1 was determined in two steps. Initial screening was carried out using the Checkerboard method using Muller-Hinton agar (FIG. 15). […] Subsequent time to kill assays were carried out using 50 μM Inh2-B1 and Ceftriaxone. Cefotaxime (1 μg/ml) in a final volume of 250 μl using a sterile 96-well (U-bottom) microtiter plate over a period of 16 h at 37° C. under constant rotation (120 rpm). Optical density and corresponding CFU counts were measured at every two-hour interval up to 8 hours with a final overnight reading at the end of incubation period. CFU counts were measured using appropriate dilution of 10 μl of properly mixed samples at each time interval. All experiments were performed in three biological replicates and the statistical analysis of the results obtained at each time point was carried out by the non-parametric t-test with Welch's correction using GraphPad Prism 6 software.

[4] = test system: S. aureus STK1 / STKK1; test: Solid-phase ATP affinity chromatography, elution of bound kinase by inhibitor, Western blot; type: binding; conditions: eluted with 50 μM inhibitor, anti-STK1 immunoblot
Procedure: (§2) An overnight culture of S. aureus MW2 strain was centrifuged, and the resulting bacterial pellet was resuspended in lysostaphin digestion buffer (50 mM Tris/HCl buffer, pH 7.5, containing 5 μg/ml DNAse/RNAse and protease inhibitor cocktail) in 1/10 the volume of the original culture volume. The latter was then subjected to lysostaphin treatment (15 U/ml). The lysostaphin digest was sonicated (5 sec pulse at every 10 sec for 10 min at 50% of 130 W, […]), and the debris free whole cell lysate was obtained after centrifugation (10.000×g, 10 min, 4° C.). […] The column was then washed with ten column volumes of binding buffer. Subsequently, the bound proteins were eluted with the 10-column volume of buffer containing 50 μM Inh-2 and Inh2-B1. S. aureus crude lysate, the last fraction of the column washing step, and eluted fractions were resolved by SDS-PAGE and electroblotted onto a PVDF membrane. […] A similar experiment was performed using S. pyogenes whole cell lysates obtained from phage lysin-digested S. pyogenes M1T1 strain using the anti-SP-STK antibody as described previously using to determine the specificity of the inhibitor for S. aureus STK1.

[5] = test system: S. pyogenes SP-STK / SP-STKK; test: as above; type: binding; conditions: 50 μM inhibitor
Procedure: as §2

[6] = test system: cell wall hydrolase genes in S. aureus MW2-WT; test: qRT-PCR mRNA expression of cell wall hydrolase genes; type: cell-based, Staphylococcus aureus; conditions: treated MW2-WT vs untreated
Procedure: The late log phase-grown S. aureus strains MW2 wild-type, and isogenic ΔSTK1 and ΔSTP1 mutant strains, as well as S. aureus MW2 strain treated with 25 μM Inh2-B1 for 4 h, were subjected to lysostaphin treatment to obtain whole cell lysate. Total RNA from the resulting lysate was first extracted by TRIZOL™ (Invitrogen/Thermo) and treated with RNase-free DNaseI. High-quality total RNA (RIN>7.0, and 260/280 and 260/230 ratios >1.8) was then extracted by using RNA purification kit (Norgen, Canada) per manufacturer's instructions and confirmed by an Agilent 2100 Bioanalyzer (Agilent Technologies, Palo Alto, Calif.). The first-strand cDNA from the total RNA was generated, and relative mRNA concentration was quantitated using SYBR Green qRT-PCR master mix and specific primers, using a Light Cycler® 480 real-time PCR machine (Table 2). The results obtained for all samples (three biological replicates each in triplicates) were normalized to corresponding values of 16S rRNA. All results including relative fold-changes in the mRNA expression (mutant vs. wild-type or treated vs. nontreated) for individual genes were analyzed using Exor4 software (Roche Applied Science). Changes in expression ratios by more than 2-fold (up- or down-regulation) were considered as significant.

[7] = test system: S. aureus MW2-WT; test: microbe, parasite or virus in culture; type: cell-based, Staphylococcus aureus; conditions: Staphylococcus aureus, MW2WT
[8] = test system: S. aureus MW2ΔSTK1 mutant; test: E-test antibiotic susceptibility (MIC), Muller-Hinton agar; type: cell-based; conditions: Staphylococcus aureus
[9] = test system: S. aureus MW2ΔSTP1 mutant; test: as above; type: cell-based; conditions: Staphylococcus aureus
[10] = test system: S. aureus MW2 wild-type; test: Checkerboard titration end-point bactericidal assay (MBC), Muller-Hinton agar; type: cell-based, Staphylococcus aureus; conditions: for MBC: Staphylococcus aureus, MW2WILDTYPE
Procedure: FIGS. 15A-15B show checkerboard assays for determining bactericidal assay. Serial two-fold dilutions of 2 mM of Inh2-B1 (MW=411.58 g/mol) and (A) 3 mM ceftriaxone (MW=669.7 g/mol) were made in two separate 96-well plates in vertical (B1-B12 to H1-H2 wells) and horizontal (A2-H2 to A12-H12 wells) directions respectively. Serially diluted Inh2-B1 (100 μL) in the individual well was then mixed with the 100 μL serially diluted ceftriaxone present in the corresponding wells. The resulting various combinations of Inh2-B1 (starting from 1 mM) and ceftriaxone (starting from 1.5 mM) or cefotaxime (2.1 mM) as well as serially diluted one Inh2-B1 (B1 to H1) and ceftriaxone (A2-A12) or cefotaxime (A2-A12) were then incorporated in Muller-Hinton mini agar plates (2 mL). The agar plates were then seeded and diluted S. aureus MW2-wild-type culture equivalent to approximately 23±3 CFU. This checkerboard assay was used to determine the ideal combination of lowest concentration of Inh2-B1 and ceftriaxone that kills 99.9% of the wild-type MW2.
(§3) Since the STK1 is not essential for bacterial survival and its absence results in retardation of growth, an end-point bactericidal assay was done, employing the Checkerboard titration method followed by a time-to-kill assay using the broth dilution method. The 96-well plate-based checkerboard titration assays were performed using the fixed number of CFUs of MW2 strain, and the survival of the bacteria was measured on solid agar plates as an end-point result. […] The cut-off value to designate clinical isolates of S. aureus for antibiotics, including Ceftriaxone (TX) and Cefotaxime (CT) as susceptible, is less than 4 μg/ml (i.e., <4.8 μM of TX, and <7 μM of CT). […] CFU counts of MW2-WT grown in the presence of various concentrations of Inh2-B1 were examined over a period of 16 h. […] Similarly, it was also determined CFU counts of MW2-WT and MW2ΔSTK1 strains each grown in the absence or the presence of 50 μM of Inh2-B1 and 1.5 μM Ceftriaxone (1 μg/ml) or […] Cefotaxime (1 μg/ml) for 16 h employing the broth dilution method. […] Further, to address whether MW2 or STK1 could become refractory to a potential combined therapy, the S. aureus MW2 wild-type strain was grown in the presence of suboptimal dose of Inh2-B1 alone and combination with Ceftriaxone and Cefotaxime (25 μM Inh2-B1 and 3 μM of Ceftriaxone or 3 μM Cefotaxime) for consecutive 10 generations.
as §1, with “interval.” for “interval. All experiments were performed in three biological replicates and the statistical analysis of the results obtained at each time point was carried out by the non-parametric t-test with Welch's correction using GraphPad Prism 6 software.”

[11] = test system: S. aureus MW2-WT; test: Time-to-kill assay (OD and CFU counts over 16 h), broth dilution; type: cell-based, Staphylococcus aureus; conditions: only 50 μM Inh2-B1, only 1.5 μM Ceftriaxone (1 μg/ml) or only 3 μM Cefotaxime (1 μg/ml), 16 h
Procedure: (§4) FIGS. 4A-F show. […] Optical Density and corresponding Colony forming units of (C and D) MW2-WT and (E and F) MW2ΔSTK1 cultures in the presence or absence 50 μM Inh2-B1, 1.51 μM (1 μg/ml) Ceftriaxone, 2.125 μM (1 μg/ml) Cefotaxime, and combination of Inh2-B1 plus Ceftriaxone, and Inh2-B1 plus Cefotaxime. The experiments were carried out as described in the Materials and Method section using Muller-Hinton broth and seeded with 4×10^6 CFUs of S. aureus MW2-Wild type or MW2ΔSTK1 strains per well. Each data points represent Mean±S.D. P values of significance (**=<0.01, ***=<0.001) were determined using the t-test with Welch's corrections. NS—Not significant.
as §1

[12] = test system: S. aureus MW2ΔSTK1; test: as above; type: cell-based, Staphylococcus aureus; conditions: in the presence of Ceftriaxone (1 μg/ml)
Procedure: as §4, §1

[13] = test system: S. aureus MW2 wild-type; test: Serial passage at suboptimal dose (10 generations), stk1 PCR and DNA sequencing; type: cell-based, Staphylococcus aureus; conditions: in the presence of 50 μM Inh2-B1
Procedure: as §3

S. aureus STKK1 (the soluble kinase domain of STK1, 280 aa), sequence (A0ABF7PGK0 entry or part of it): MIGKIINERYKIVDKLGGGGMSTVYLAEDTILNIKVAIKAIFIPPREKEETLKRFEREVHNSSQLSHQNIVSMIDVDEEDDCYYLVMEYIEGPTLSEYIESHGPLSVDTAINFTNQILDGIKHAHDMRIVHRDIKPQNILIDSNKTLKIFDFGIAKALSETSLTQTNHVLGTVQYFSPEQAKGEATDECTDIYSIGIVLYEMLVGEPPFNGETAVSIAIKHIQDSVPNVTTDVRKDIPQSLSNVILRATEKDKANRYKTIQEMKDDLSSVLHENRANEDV

Row | Structure (SMILES) | pIC50 [1] | inhibition of autophosphorylation of S. pyogenes SP-STK [2] | pIC50 ([3]; MW2, read-out: IC50 concentration for MW2) | MIC ([3]; MW2, read-out: minimum inhibitory concentration) | elution of STK1 bound to ATP-column, whole cell lysate of S. aureus MW2 [4] | elution of SP-STK bound to ATP-column, S. pyogenes whole cell lysate [5] | expression of cell wall hydrolase-encoding genes [6] | MIC [7] | MIC [8] | MIC [9] | MBC ([10]; agent alone, MW2, read-out: Minimum bactericidal concentration (MBC)) | MBC ([10]; in the presence of 50 μM of Inh2-B1, read-out: MBC for MW2 in the presence of Inh2-B1) | concentration up to which growth of MW2 was seen ([10]; agent alone, further analysis) | concentration of wells with ≥1 CFU of wild-type MW2 ([10]; checkerboard, agent alone) | fold reduction of MBC ([10]; in the presence of 50 μM of Inh2-B1 vs antibiotic alone) | growth pattern of the wild-type, single agent [11] | growth of MW2ΔSTK1 [12] | bactericidal activity against the passaged strain [13]
1 | Cc1ccc(NC(=O)c2sc(=S)n3c2[nH]c(=O)c2ccccc23)c(C)c1 [Inh2, N-(2,4-Dimethylphenyl)-5-oxo-1-thioxo-4,5-dihydro[1,3]thiazolo[3,4-a]quinazoline-3-carboxamide] | 4.61 | did not inhibit autophosphorylation | 4.92 | 48 µM | presence of STK1 | did not elute | down-regulation of cell wall hydrolase-encoding genes |  |  |  |  |  |  |  |  |  |  | 
2 | CO/N=C(\C(=O)N[C@@H]1C(=O)N2C(C(=O)O)=C(CSc3nc(=O)c(=O)[nH]n3C)CS[C@H]12)c1csc(N)n1 [Ceftriaxone] |  |  |  |  |  |  |  | > 100 µg/mL | 4 µg/mL (≈ 7.21 µM) | > 100 µg/mL | 151 µM and 100 µg/mL | 0.59 µM and 0.39 µg/mL | 125 µM | ≤ 75.00 µM | 256 fold | remained unaltered | reduced significantly | remained intact
